This is an account of results in patent US20260001928A1 (CORTERIA PHARMACEUTICALS, priority 2022, published 2026).

One series has as its target T1, human CRF2a receptor (Homo sapiens, UniProt Q13324).
T1 construct: expressed in transfected cells; host or cells: TeloHEAC cells
T1 sequence (Q13324 1-411): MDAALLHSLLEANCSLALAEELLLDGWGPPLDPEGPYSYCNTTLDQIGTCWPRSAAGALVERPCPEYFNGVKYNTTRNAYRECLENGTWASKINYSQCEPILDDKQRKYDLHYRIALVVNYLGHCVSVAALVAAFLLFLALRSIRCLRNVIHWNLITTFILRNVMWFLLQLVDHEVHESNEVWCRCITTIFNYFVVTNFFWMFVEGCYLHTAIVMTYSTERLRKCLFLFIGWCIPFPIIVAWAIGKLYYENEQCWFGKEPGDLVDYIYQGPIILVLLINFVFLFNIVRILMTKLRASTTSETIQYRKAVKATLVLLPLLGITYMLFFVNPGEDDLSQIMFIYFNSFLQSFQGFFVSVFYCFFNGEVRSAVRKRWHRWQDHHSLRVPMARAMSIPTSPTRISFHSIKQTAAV
As to the kind of experiment: Activity at human CRF2a receptor, cAMP functional assay in TeloHEAC cells. The class given is cell-based. Particulars: TeloHEAC cells stably expressing human CRF2a receptor, relative to urocortin 2 (100 nM = 100%). In short, it runs like this: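 cAMP accumulation was measured by HTRF 665/620 nm ratio after 30 min at 37° C compound exposure (16 twofold dilutions) of CRF2a-expressing TeloHEAC cells, 10000/well, in HEPES-buffered HBSS plus IBMX. Activity was normalised to urocortin 2 at 100 nM (100%), and EC50 was the concentration giving half-maximal activation.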

In a further series the target is T2, CFR1R receptor (Homo sapiens, UniProt P34998).
T2 construct: host or cells: CHO-K1 (clone 2)
T2 sequence (P34998 24-415): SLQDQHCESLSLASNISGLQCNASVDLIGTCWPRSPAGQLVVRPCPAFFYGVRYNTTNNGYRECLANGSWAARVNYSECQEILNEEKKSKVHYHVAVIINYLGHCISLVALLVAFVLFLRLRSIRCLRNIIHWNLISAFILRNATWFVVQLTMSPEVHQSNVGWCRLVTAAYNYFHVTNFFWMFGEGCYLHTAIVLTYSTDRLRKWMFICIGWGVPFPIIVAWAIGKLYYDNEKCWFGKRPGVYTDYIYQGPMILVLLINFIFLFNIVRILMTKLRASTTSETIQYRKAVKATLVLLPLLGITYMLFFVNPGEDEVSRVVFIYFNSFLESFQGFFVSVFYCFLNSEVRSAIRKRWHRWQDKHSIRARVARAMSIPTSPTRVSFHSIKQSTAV
Kind of series: Activity at anti-target CFR1R receptor, cAMP assay in CRF1R-overexpression CHO-K1 cells. The class given is cell-based. Particulars: 100% = Sauvagine at 100 nM; for EC50: cAMP. In short, it runs like this:
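Clone 2; cryopreserved stocks (10% DMSO); 4000 cells/well final; 100% activation = Sauvagine 100 nM; otherwise as TeloHAEC protocol.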
(In general: Changes in cAMP serve as a functional read-out for many G protein-coupled receptors.)

A short description of series [1]: Chemical stability in buffer (pH 7.4 / pH 4.5), % purity loss. The class given is physicochemical. Particulars: 40° C. vs 5° C., 14 or 28 days; for Buffer stability pH 7.4 % purity loss: 100 mM phosphate buffer pH 7.4; for Buffer stability pH 4.5 % purity loss: 100 mM acetate buffer pH 4.5. In short, it runs like this: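 LC-UV gave % loss after 14 or 28 days of storage at 5 °C or 40 °C. Samples were diluted supernatants from compound incubated 1 h at room temperature at 10 mg/mL target, in 100 mM acetate pH 4.5 or 100 mM phosphate pH 7.4.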

The test system of a further series is Sprague Dawley rats. As to the kind of experiment: Effect on systolic blood pressure, telemetry in Sprague Dawley rats. Particulars: 0.1 mg/kg SC; for Systolic blood pressure (Mean) % change from baseline, 8 h / Systolic blood pressure (Mean) % change from baseline, 12 h / Systolic blood pressure (Mean) % change from baseline, 24 h: n=2; for Duration of action: last time point with an effect on BP still observed. The class given is in vivo, rat. In short, it runs like this: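 Values are % change from a 1 h pre-dose baseline in systolic pressure, tracked by telemetry for up to 48 hours after a single 0.1 mg/kg subcutaneous dose. Rats (Sprague Dawley, n=2 per peptide) carried aortic catheters and recovered at least 10 days post-surgery; duration of action marks the last time point still showing an effect.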

A short description of series [2]: Pharmacokinetics in male Sprague Dawley rats after subcutaneous administration. Particulars: plasma, rat. The class given is in vivo.

As a reminder, the EC50 is the concentration at which the effect is half-maximal. Read a high EC50 as a less potent agent. As a reminder, the AUC(0-t) is the area under the concentration-time curve up to a stated or last time point. Broadly, the half-life is how long it takes for the measured level to halve. A low value points to rapid decline. For orientation: Tmax means the time at which the peak concentration occurs.

Each structure is given as a SMILES string. *1 amine or outer side, *2 acyl side, *3 side chain or, on linkers, in order; H or OH if unused. Where a SMILES comes first, the peptide text is derived from it. Side-chain parts run from the residue outwards. [ ]: non-standard residue; d: D form. The star is where a group is joined. C20 diacid = O=C(O)CCCCCCCCCCCCCCCCCCC(=O)*; C18 diacid = O=C(O)CCCCCCCCCCCCCCCCC(=O)*; γGlu = O=C(O)[C@H](CCC(=O)[*:2])N[*:1]; NMeI = CC[C@H](C)[C@H](NC)C(=O)O; αMeL = CC(C)C[C@](C)(N)C(=O)O; AEEA = NCCOCCOCC(=O)O; Aib = CC(C)(N)C(=O)O Where only a bound is given, the exact number is not on record here.

As for `CC[C@H](C)[C@H](NC(C)=O)C(=O)N[C@H](C(=O)N[C@@H](CC(C)C)C(=O)N[C@@H](CO)C(=O)N[C@@H](CC(C)C)C(=O)N[C@@H](CC(=O)O)C(=O)N[C@@H](C(=O)N1CCC[C@H]1C(=O)N[C@H](C(=O)N[C@@H](CCCCN)C(=O)N[C@@](C)(CC(C)C)C(=O)N[C@@H](CCCCNC(=O)COCCOCCNC(=O)COCCOCCNC(=O)CC[C@H](NC(=O)CCCCCCCCCCCCCCCCC(=O)O)C(=O)O)C(=O)N[C@@H](CCCCN)C(=O)N[C@H](C(=O)N[C@@H](CC(C)C)C(=O)N[C@@H](CC(C)C)C(=O)N[C@@H](CCC(=O)O)C(=O)N[C@@H](CCC(N)=O)C(=O)N[C@@H](CCC(=O)O)C(=O)N[C@@H](CCCCN)C(=O)N[C@@H](CCC(N)=O)C(=O)N[C@@H](CCCCN)C(=O)N[C@@H](CCCCN)C(=O)N[C@@H](CCC(N)=O)C(=O)N[C@@H](CCCNC(=N)N)C(=O)N[C@@H](CCC(=O)O)C(=O)N[C@@H](CCC(N)=O)C(=O)N[C@@H](C)C(=O)N[C@@H](CCC(=O)O)C(=O)N[C@H](C(=O)N[C@@H](CC(N)=O)C(=O)NC(C)(C)C(=O)N[C@@H](CCC(N)=O)C(=O)N[C@H](C(=O)N[C@@H](CC(C)C)C(=O)N[C@@H](C)C(=O)N[C@@H](CCC(N)=O)C(=O)N[C@H](C(N)=O)C(C)C)[C@@H](C)CC)[C@@H](C)O)[C@@H](C)CC)[C@@H](C)CC)C(C)C)C(C)C` [compound 110] (Ac-IVLSLD[dV]PIK[αMeL]K([AEEA-AEEA-γGlu-C18 diacid])KILLEQEKQKKQREQAETN[Aib]QILAQV-NH2), the EC50 at human CRF2a receptor worked out at 0.3 nM. Further, at CFR1R receptor, the “Emax (% I)” value was 9 % I and the half-maximal effective concentration (EC50) is greater than 250 nM. Moreover, the “Buffer stability pH 7.4 % purity loss” value in series [1] is reported as 0/nd ^ %. Also, in the series with Sprague Dawley rats, the “Systolic blood pressure (Mean) % change from baseline, 8 h” value was −19%; the “Systolic blood pressure (Mean) % change from baseline, 12 h” value was −10%; the “Systolic blood pressure (Mean) % change from baseline, 24 h” value is −6%; the Duration of action is recorded as 20 h. In series [2] (IV, 0.05 mg/kg), this compound showed an exposure AUC(0-t) of 3880 ng·h/mL and a half-life of 4.8 h. Further, in series [2] (SC, 0.1 mg/kg), the time of peak concentration (Tmax) turned out to be 5 h and the half-life was 5 h.

With `CC[C@H](C)[C@H](NC)C(=O)N[C@H](C(=O)N[C@@H](CC(C)C)C(=O)N[C@@H](CO)C(=O)N[C@@H](CC(C)C)C(=O)N[C@@H](CC(=O)O)C(=O)N[C@@H](C(=O)N1CCC[C@H]1C(=O)N[C@H](C(=O)N[C@@H](CCCCN)C(=O)N[C@@H](CC(C)C)C(=O)N[C@@H](CCCCNC(=O)COCCOCCNC(=O)COCCOCCNC(=O)CC[C@H](NC(=O)CCCCCCCCCCCCCCCCC(=O)O)C(=O)O)C(=O)N[C@@H](CCCCN)C(=O)N[C@H](C(=O)N[C@@H](CC(C)C)C(=O)N[C@@H](CC(C)C)C(=O)N[C@@H](CCC(=O)O)C(=O)N[C@@H](CCC(N)=O)C(=O)N[C@@H](CCC(=O)O)C(=O)N[C@@H](CCCCN)C(=O)N[C@@H](CCC(N)=O)C(=O)N[C@@H](CCCCN)C(=O)N[C@@H](CCCCN)C(=O)N[C@@H](CCC(N)=O)C(=O)N[C@@H](CCCNC(=N)N)C(=O)N[C@@H](CCC(=O)O)C(=O)N[C@@H](CCC(N)=O)C(=O)N[C@@H](C)C(=O)N[C@@H](CCC(=O)O)C(=O)N[C@H](C(=O)N[C@@H](CC(N)=O)C(=O)NC(C)(C)C(=O)N[C@@H](CCC(N)=O)C(=O)N[C@H](C(=O)N[C@@H](CC(C)C)C(=O)N[C@@H](C)C(=O)N[C@@H](CCC(N)=O)C(=O)N[C@H](C(N)=O)C(C)C)[C@@H](C)CC)[C@@H](C)O)[C@@H](C)CC)[C@@H](C)CC)C(C)C)C(C)C` [compound 118] (H-[NMeI]VLSLD[dV]PIKLK([AEEA-AEEA-γGlu-C18 diacid])KILLEQEKQKKQREQAETN[Aib]QILAQV-NH2), the concentration giving a half-maximal response (EC50) at human CRF2a receptor came to 0.6 nM. Also, on CFR1R receptor, the “Emax (% I)” value came out at 7 % I and the half-maximal effective concentration (EC50) is greater than 250 nM. Further, in series [1], the “Buffer stability pH 4.5 % purity loss” value is on record as 0/0 ^ % and the “Buffer stability pH 7.4 % purity loss” value is recorded as 0/0 ^ %. In addition, in the series on Sprague Dawley rats, the “Systolic blood pressure (Mean) % change from baseline, 8 h” value is reported as −24%; the “Systolic blood pressure (Mean) % change from baseline, 12 h” value is reported as −17%; the “Systolic blood pressure (Mean) % change from baseline, 24 h” value is on record as −4%; the Duration of action is recorded as greater than 24 h. In series [2] (IV, 0.05 mg/kg), this compound showed an AUC(0-t) of 3900 ng·h/mL and a half-life of 5.2 h. Further, in series [2] (SC, 0.1 mg/kg), the Tmax came out at 8 h and the half-life was 5.2 h.

Regarding `CC[C@H](C)[C@H](NC(C)=O)C(=O)N[C@H](C(=O)N[C@@H](CC(C)C)C(=O)N[C@@H](CO)C(=O)N[C@@H](CC(C)C)C(=O)N[C@@H](CC(=O)O)C(=O)N[C@@H](C(=O)N1CCC[C@H]1C(=O)N[C@H](C(=O)N[C@@H](CCCCN)C(=O)N[C@@H](CC(C)C)C(=O)N[C@@H](CCCCNC(=O)CC[C@H](NC(=O)CCCCCCCCCCCCCCCCCCC(=O)O)C(=O)O)C(=O)N[C@@H](CCCCN)C(=O)N[C@H](C(=O)N[C@@H](CC(C)C)C(=O)N[C@@H](CC(C)C)C(=O)N[C@@H](CCC(=O)O)C(=O)N[C@@H](CCC(N)=O)C(=O)N[C@@H](CCC(=O)O)C(=O)N[C@@H](CCCCN)C(=O)N[C@@H](CCC(N)=O)C(=O)N[C@@H](CCCCN)C(=O)N[C@@H](CCCCN)C(=O)N[C@@H](CCC(N)=O)C(=O)N[C@@H](CCCNC(=N)N)C(=O)N[C@@H](CCC(=O)O)C(=O)N[C@@H](CCC(N)=O)C(=O)N[C@@H](C)C(=O)N[C@@H](CCC(=O)O)C(=O)N[C@H](C(=O)N[C@@H](CC(N)=O)C(=O)NC(C)(C)C(=O)N[C@@H](CCC(N)=O)C(=O)N[C@H](C(=O)N[C@@H](CC(C)C)C(=O)N[C@@H](C)C(=O)N[C@@H](CCC(N)=O)C(=O)N[C@H](C(N)=O)C(C)C)[C@@H](C)CC)[C@@H](C)O)[C@@H](C)CC)[C@@H](C)CC)C(C)C)C(C)C` [compound 206] (Ac-IVLSLD[dV]PIKLK([γGlu-C20 diacid])KILLEQEKQKKQREQAETN[Aib]QILAQV-NH2), the EC50 on human CRF2a receptor was 0.11 nM. Moreover, on CFR1R receptor, the “Emax (% I)” value came out at 42 % I. In addition, in series [1], the “Buffer stability pH 4.5 % purity loss” value is listed as 0.0/0.0 ^ % and the “Buffer stability pH 7.4 % purity loss” value is 0.0/0.0 ^ %. In the series on Sprague Dawley rats, the “Systolic blood pressure (Mean) % change from baseline, 8 h” value is −12%; the “Systolic blood pressure (Mean) % change from baseline, 12 h” value is on record as −16%; the “Systolic blood pressure (Mean) % change from baseline, 24 h” value is −13%; the Duration of action was greater than 24 h. For the same compound, in series [2] (IV, 0.05 mg/kg), the AUC(0-t) was 8100 ng·h/mL and the half-life is 8 h. Further, in series [2] (SC, 0.1 mg/kg), the Tmax was 8 h and the half-life was 8 h.
